Assay results reported in patent US10213429B2, “Imidazo-pyrazinyl derivatives useful as soluble guanylate cyclase activators” (Merck Sharp & Dohme Corp., priority 2015, dated 2019).
One block for each compound: values may come before it.

Target: T1, sGC α1/β1 heterodimer (Homo sapiens, UniProt Q02108+Q02153)
T1 construct: expressed in transfected cells; host or cells: CHO-K1 (clone #7, CHO-K1/sGC)
T1 sequence (Q02108 1-690): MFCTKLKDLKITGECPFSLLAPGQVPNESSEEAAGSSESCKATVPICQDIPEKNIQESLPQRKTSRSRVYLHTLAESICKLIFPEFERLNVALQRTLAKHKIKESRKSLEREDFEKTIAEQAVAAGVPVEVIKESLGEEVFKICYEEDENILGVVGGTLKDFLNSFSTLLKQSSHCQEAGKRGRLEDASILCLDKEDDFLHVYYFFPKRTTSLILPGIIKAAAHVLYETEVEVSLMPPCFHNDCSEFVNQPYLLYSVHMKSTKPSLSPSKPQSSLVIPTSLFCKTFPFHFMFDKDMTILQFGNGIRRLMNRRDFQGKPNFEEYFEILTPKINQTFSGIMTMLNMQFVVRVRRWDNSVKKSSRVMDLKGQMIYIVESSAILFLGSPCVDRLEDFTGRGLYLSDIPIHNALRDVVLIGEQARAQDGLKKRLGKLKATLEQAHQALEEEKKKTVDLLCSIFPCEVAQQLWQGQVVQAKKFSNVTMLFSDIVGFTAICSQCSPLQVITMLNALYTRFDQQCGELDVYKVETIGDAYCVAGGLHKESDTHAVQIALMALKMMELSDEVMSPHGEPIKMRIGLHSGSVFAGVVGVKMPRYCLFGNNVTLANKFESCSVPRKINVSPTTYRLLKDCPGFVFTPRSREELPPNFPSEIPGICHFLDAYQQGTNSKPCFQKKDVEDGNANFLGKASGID
T1 sequence (Q02153 1-619): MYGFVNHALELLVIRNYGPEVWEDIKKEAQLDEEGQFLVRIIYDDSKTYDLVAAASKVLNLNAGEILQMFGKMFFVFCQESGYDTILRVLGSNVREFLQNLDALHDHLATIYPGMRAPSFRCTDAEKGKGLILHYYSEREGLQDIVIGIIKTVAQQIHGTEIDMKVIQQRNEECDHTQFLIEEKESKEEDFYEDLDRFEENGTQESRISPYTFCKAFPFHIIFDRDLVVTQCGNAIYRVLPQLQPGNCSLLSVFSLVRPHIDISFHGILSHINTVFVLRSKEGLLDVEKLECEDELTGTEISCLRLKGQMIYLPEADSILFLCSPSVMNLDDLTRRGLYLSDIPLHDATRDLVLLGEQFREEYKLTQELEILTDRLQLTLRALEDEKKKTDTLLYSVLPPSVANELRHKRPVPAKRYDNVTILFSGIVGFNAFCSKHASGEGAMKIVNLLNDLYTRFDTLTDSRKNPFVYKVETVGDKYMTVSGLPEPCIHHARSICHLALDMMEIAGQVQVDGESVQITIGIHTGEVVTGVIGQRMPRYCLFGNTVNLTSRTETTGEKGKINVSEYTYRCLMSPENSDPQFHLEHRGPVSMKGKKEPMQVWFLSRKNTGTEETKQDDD
Test: Cell-Based sGC Functional Assay (CASA Assay), cGMP by HTRF in CHO-K1/sGC cells
Details: for EC50: cGMP production, 1 hr at 37° C., 4P fit, presence or absence of 1 μM DETA-NO not given, read-out: IP (nM) (inflection point); for % Act.: percent activation relative to maximum cGMP production of Compound A (= 100%); for Emax: CHO-K1, percent activation relative to maximum cGMP production of Compound A (= 100%), read-out: % Act.
Excerpt: Biological Assay 1: Cell-Based sGC Functional Assay (CASA Assay)
sGC is a heme-containing enzyme that converts GTP to secondary messenger cGMP. Increases in cGMP levels affect several physiological processes including vasorelaxation through multiple downstream pathways. […] Heme-dependent activators (HDAs) preferentially activate sGC containing a ferrous heme group. To determine the effect of sGC activators on enzyme activity, the CASA assay was developed to monitor the generation of cGMP in a cell line that stably expresses the heterodimeric sGC protein.
A CHO-K1 cell line stably expressing the sGC α1/β1 heterodimer was generated using a standard transfection protocol. CHO-K1 cells were transfected with plasmids pIREShyghsGCα1 and pIRESneo-hsGCβ1 simultaneously using FUGENE reagent. Clones that stably express both subunits were selected with hygromycin and neomycin for ˜2 weeks. Clone #7 was chosen for the assay and was designated CHO-K1/sGC. CHO-K1/sGC cells were maintained in F-K12 medium containing 10% heat-inactivated Fetal Bovine Serum (FBS), 100 μg/mL penicillin/streptomycin, 0.5 mg/mL hygromycin and 0.25 mg/mL G418. The cells were then cryopreserved in LN2. On the day of the assay, cells were thawed and resuspended in EBSS Assay Buffer (Sigma, E3024) supplemented with 5 mM MgCl2, 10 mM HEPES (4-(2-hydroxyethyl)piperazine-1-ethanesulfonic acid) and 0.05% BSA (bovine serum albumin) (EAB) and cell density was then adjusted to 4×10^5/mL with EAB. IBMX (3-isobutyl-1-methylxanthin, 0.5 mM) was added to inhibit degradation of cGMP. Compounds were diluted from DMSO stock solutions and added to the assay at a final DMSO concentration of 2.5%. Cells were incubated with compounds in the presence and absence of 1 μM of Diethylenetriamine/nitric oxide adduct (DETA-NO; Sigma, 17018) for 1 hr at 37° C. At the end of the incubation period, the reaction was terminated and the cells were lysed with the detection reagents from Cisbio Kits. The level of intracellular cGMP was determined using an HTRF-based assay kit (CisBio, 62GM2PEC), which detects the displacement of a fluorescence labeled cGMP from its specific antibody. The cGMP produced by test compounds was directly compared to the maximum cGMP production (this value was set to equal 100% activation.) of the published sGC-HDA Compound A:
[drawing 175] (Example 1 in WO 2010/065275, published Jun. 10, 2010). The test compounds' activities were then expressed as a percentage of Compound A, the standard in every experiment. This percent activation was calculated either in the presence or absence of DETA-NO which was then plotted. IP and maximum fold induction was derived using ADA analysis software for 4P fit.
The compounds in the Examples of the instant invention had inflection points (IP) less than or equal to 10 μM and most less than or equal to about 1 μM.

SMILES: CC1(C(=O)NC2CC2)C(=O)Nc2nc(-c3cn4ccnc4c(Cc4ccc(F)cc4)n3)ncc21 (single isomer, unassigned) [Example 67B, N-Cyclopropyl-2-(8-(4-fluorobenzyl)imidazo[1,2-a]pyrazin-6-yl)-5-methyl-6-oxo-6,7-dihydro-5H-pyrrolo[2,3-d]pyrimidine-5-carboxamide]
EC50: 936 nM
% Act.: 149%

SMILES: O=C1Nc2nc(-c3cn4ccnc4c(Cc4ccc(F)cc4)n3)ncc2C1(C(=O)NC1CC1)C1CC1 (single isomer, unassigned) [Example 68A, N,5-dicyclopropyl-2-(8-(4-fluorobenzyl)imidazo[1,2-a]pyrazin-6-yl)-6-oxo-6,7-dihydro-5H-pyrrolo[2,3-d]pyrimidine-5-carboxamide]
Emax: 138%
EC50: 254 nM

SMILES: O=C1Nc2nc(-c3cn4ccnc4c(Cc4ccc(F)cc4)n3)ncc2C1(C(=O)NC1CC1)C1CC1 (single isomer, unassigned) [Example 68B, N,5-dicyclopropyl-2-(8-(4-fluorobenzyl)imidazo[1,2-a]pyrazin-6-yl)-6-oxo-6,7-dihydro-5H-pyrrolo[2,3-d]pyrimidine-5-carboxamide]
EC50: 83 nM
% Act.: 120%

SMILES: CC1(C(=O)NC2CC2)C(=O)Nc2nc(-c3cn4ccnc4c(Cc4ccccc4F)n3)ncc21 (single isomer, unassigned) [Example 69B, N-cyclopropyl-2-(8-(2-fluorobenzyl)imidazo[1,2-a]pyrazin-6-yl)-5-methyl-6-oxo-6,7-dihydro-5H-pyrrolo[2,3-d]pyrimidine-5-carboxamide]
EC50: 226 nM
% Act.: 118%

SMILES: O=C1Nc2nc(-c3cn4ccnc4c(Cc4ccccc4F)n3)ncc2C1(C(=O)NC1CC1)C1CC1 (single isomer, unassigned) [Example 70A, N,5-dicyclopropyl-2-(8-(2-fluorobenzyl)imidazo[1,2-a]pyrazin-6-yl)-6-oxo-6,7-dihydro-5H-pyrrolo[2,3-d]pyrimidine-5-carboxamide]
EC50: 179 nM
% Act.: 169%

SMILES: O=C1Nc2nc(-c3cn4ccnc4c(CCC(F)(F)C(F)(F)F)n3)ncc2C1(c1ccc(Cl)cn1)C1CC1 (centres unmarked) [Example 7A, 5-(5-chloropyridin-2-yl)-5-cyclopropyl-2-(8-(3,3,4,4,4-pentafluorobutyl)imidazo[1,2-a]pyrazin-6-yl)-5H-pyrrolo[2,3-d]pyrimidin-6(7H)-one]
Emax: 113%
EC50: 343 nM

SMILES: O=C1Nc2nc(-c3cn4ccnc4c(CCC(F)(F)C(F)(F)F)n3)nc(O)c2C1(c1ccc(Cl)cn1)C1CC1 (centres unmarked) [Example 8A, 5-(5-chloropyridin-2-yl)-5-cyclopropyl-4-hydroxy-2-(8-(3,3,4,4,4-pentafluorobutyl)imidazo[1,2-a]pyrazin-6-yl)-5H-pyrrolo[2,3-d]pyrimidin-6(7H)-one]
Emax: 142%
EC50: 1180 nM

SMILES: O=C1Nc2nc(-c3cn4ccnc4c(CCCC(F)(F)F)n3)nc(O)c2C1(c1ccc(Cl)cn1)C1CC1 (centres unmarked) [Example 10A, 5-(5-chloropyridin-2-yl)-5-cyclopropyl-4-hydroxy-2-(8-(4,4,4-trifluorobutyl)imidazo[1,2-a]pyrazin-6-yl)-5H-pyrrolo[2,3-d]pyrimidin-6(7H)-one]
Emax: 126%
EC50: 658 nM

SMILES: CC1(c2ccc(Cl)c(F)c2)C(=O)Nc2nc(-c3cn4ccnc4c(CCC(F)(F)F)n3)nc(O)c21 (centres unmarked) [Example 13B, 5-(4-chloro-3-fluorophenyl)-4-hydroxy-5-methyl-2-(8-(3,3,3-trifluoropropyl)imidazo[1,2-a]pyrazin-6-yl)-5H-pyrrolo[2,3-d]pyrimidin-6(7H)-one]
Emax: 70%
EC50: 183 nM

SMILES: CCCc1nc(-c2nc(O)c3c(n2)NC(=O)C3(C)c2ccc(Cl)cc2)cn2ccnc12 (centres unmarked) [Example 14A, 5-(4-chlorophenyl)-4-hydroxy-5-methyl-2-(8-propylimidazo[1,2-a]pyrazin-6-yl)-5H-pyrrolo[2,3-d]pyrimidin-6(7H)-one]
Emax: 92%
EC50: 657 nM

SMILES: CCCc1nc(-c2nc(O)c3c(n2)NC(=O)C3(C)c2ccc(Cl)c(F)c2)cn2ccnc12 (centres unmarked) [Example 15B, 5-(4-chloro-3-fluorophenyl)-4-hydroxy-5-methyl-2-(8-propylimidazo[1,2-a]pyrazin-6-yl)-5H-pyrrolo[2,3-d]pyrimidin-6(7H)-one]
Emax: 84%
EC50: 702 nM

These reach a lower EC50. Values come first.

EC50: 38 nM
% Act.: 179%
SMILES: CC1(C(=O)NC2CC2)C(=O)Nc2nc(-c3cn4ccnc4c(Cc4ccccc4F)n3)ncc21 (single isomer, unassigned) [Example 69A, N-cyclopropyl-2-(8-(2-fluorobenzyl)imidazo[1,2-a]pyrazin-6-yl)-5-methyl-6-oxo-6,7-dihydro-5H-pyrrolo[2,3-d]pyrimidine-5-carboxamide]

EC50: 61 nM
% Act.: 130%
SMILES: O=C1Nc2nc(-c3cn4ccnc4c(Cc4ccccc4F)n3)ncc2C1(C(=O)NC1CC1)C1CC1 (single isomer, unassigned) [Example 70B, N,5-dicyclopropyl-2-(8-(2-fluorobenzyl)imidazo[1,2-a]pyrazin-6-yl)-6-oxo-6,7-dihydro-5H-pyrrolo[2,3-d]pyrimidine-5-carboxamide]

Emax: 113%
EC50: 36 nM
SMILES: CC(C)C1(C)C(=O)Nc2nc(-c3cn4ccnc4c(Cc4ccccc4)n3)ncc21 (single isomer, unassigned) [Example 95A, 2-(8-Benzylimidazo[1,2-a]pyrazin-6-yl)-5-isopropyl-5-methyl-5H-pyrrolo[2,3-d]pyrimidin-6(7H)-one]

Emax: 88%
EC50: 66 nM
SMILES: O=C1Nc2nc(-c3cn4ccnc4c(CCC(F)(F)C(F)(F)F)n3)ncc2C1(c1ccc(F)cc1)C1CC1 (centres unmarked) [Example 11B, 5-cyclopropyl-5-(4-fluorophenyl)-2-(8-(3,3,4,4,4-pentafluorobutyl)imidazo[1,2-a]pyrazin-6-yl)-5H-pyrrolo[2,3-d]pyrimidin-6(7H)-one]

Emax: 111%
EC50: 45 nM
SMILES: CC1(c2ccc(Cl)cn2)C(=O)Nc2nc(-c3cn4ccnc4c(Cc4ccc(F)cc4)n3)nc(O)c21 (centres unmarked) [Example 16A, 5-(5-chloropyridin-2-yl)-2-(8-(4-fluorobenzyl)imidazo[1,2-a]pyrazin-6-yl)-4-hydroxy-5-methyl-5H-pyrrolo[2,3-d]pyrimidin-6(7H)-one]
